Experimental data published in the supplement of paper PMC10307832.

How the values were obtained:
Test in all cases: relative viability (nuclei count vs DMSO), 5 days (fraction); higher = more cells survive
[1] = compound: CC1=CC(=NN1)NC2=CC(=NC(=N2)/C=C/C3=CC=CC=C3)N4CCN(CC4)C + CS(=O)(=O)N1CCN(Cc2cc3nc(-c4cccc5[nH]ncc45)nc(N4CCOCC4)c3s2)CC1 [Pictilisib] (partner 1 µM)
In short: (§1)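 Relative viability was taken as the ratio of nuclei in treated wells to nuclei in vehicle wells. Lung cancer cell lines in 1536-well plates received compounds by pin tool one day after seeding, either one drug alone or a fixed anchor-drug dose plus five library-drug doses (not always all listed) in √10 steps. Nuclei were counted on 4× images after 5 days of treatment, and values are medians of duplicate plates.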

Bortezomib + AZD7762 = compound: CC(C)C[C@H](NC(=O)[C@H](Cc1ccccc1)NC(=O)c1cnccn1)B(O)O [Bortezomib] + NC(=O)Nc1cc(-c2cccc(F)c2)sc1C(=O)N[C@H]1CCCNC1 [AZD7762] (partner 0.2 µM)
In short: as §1

Bortezomib + Dasatinib = compound: CC(C)C[C@H](NC(=O)[C@H](Cc1ccccc1)NC(=O)c1cnccn1)B(O)O [Bortezomib] + Cc1nc(Nc2ncc(C(=O)Nc3c(C)cccc3Cl)s2)cc(N2CCN(CCO)CC2)n1 [Dasatinib] (partner 0.075 µM)
In short: as §1

Obatoclax + Linsitinib = compound: COC1=CC(c2cc3ccccc3[nH]2)=N/C1=C\c1[nH]c(C)cc1C [Obatoclax] + C[C@]1(O)C[C@@H](c2nc(-c3ccc4ccc(-c5ccccc5)nc4c3)c3c(N)nccn32)C1 [Linsitinib] (partner 1 µM)
In short: as §1

Row | Cell Line | relative viability ([1]; first compound 0.08 µM) | relative viability ([1]; first compound 0.253 µM) | relative viability ([1]; first compound 0.8 µM) | relative viability ([1]; first compound 2.53 µM) | relative viability ([1]; first compound 8 µM) | relative viability (Bortezomib + AZD7762; first compound 0.0002 µM) | relative viability (Bortezomib + AZD7762; first compound 0.000632 µM) | relative viability (Bortezomib + AZD7762; first compound 0.002 µM) | relative viability (Bortezomib + AZD7762; first compound 0.006325 µM) | relative viability (Bortezomib + AZD7762; first compound 0.02 µM) | relative viability (Bortezomib + Dasatinib; first compound 0.0002 µM) | relative viability (Bortezomib + Dasatinib; first compound 0.000632 µM) | relative viability (Bortezomib + Dasatinib; first compound 0.002 µM) | relative viability (Bortezomib + Dasatinib; first compound 0.006325 µM) | relative viability (Bortezomib + Dasatinib; first compound 0.02 µM) | relative viability (Obatoclax + Linsitinib; first compound 0.01 µM) | relative viability (Obatoclax + Linsitinib; first compound 0.03162 µM) | relative viability (Obatoclax + Linsitinib; first compound 0.1 µM) | relative viability (Obatoclax + Linsitinib; first compound 0.3162 µM) | relative viability (Obatoclax + Linsitinib; first compound 1 µM)
1 | LOU-NH91 | 0.461 | 0.544 | 0.513 | 0.454 | 0.314 | 0.729 | 0.68 | 0.361 | 0.348 | 0.339 | 0.539 | 0.529 | 0.519 | 0.271 | 0.226 | 0.949 | 0.865 | 0.792 | 0.833 | 0.761
2 | LCLC-103H | 0.623 | 0.676 | 0.58 | 0.5 | 0.347 | 0.816 | 0.769 | 0.764 | 0.748 | 0.201 | 0.461 | 0.486 | 0.435 | 0.161 | 0.123 | 0.953 | 1.02 | 1.13 | 1 | 1.23
3 | NCI-H1915 | 0.948 | 0.674 | 0.885 | 0.571 | 0.289 | 0.751 | 0.726 | 0.715 | 0.163 | 0.0511 | 0.234 | 0.329 | 0.315 | 0.128 | 0.0542 | 1.07 | 1.06 | 1.09 | 1.07 | 1.06
4 | NCI-H1734 | 0.463 | 0.422 | 0.456 | 0.214 | 0.122 | 0.563 | 0.541 | 0.57 | 0.116 | 0.0989 | 0.469 | 0.45 | 0.516 | 0.112 | 0.109 | 0.808 | 0.799 | – | 0.728 | 0.749
5 | HCC-15 | 0.739 | 0.548 | 0.667 | 0.299 | 0.104 | 1.04 | 1.14 | 1.17 | 0.763 | 0.127 | 0.514 | 0.629 | 0.649 | 0.0786 | 0.0817 | 0.879 | 0.708 | 0.845 | 0.736 | 0.606
6 | HCC-366 | 0.148 | 0.156 | 0.136 | 0.112 | 0.0428 | 0.221 | 0.331 | 0.401 | 0.37 | 0.0238 | 0.664 | 0.474 | 0.726 | 0.481 | 0.0296 | 0.597 | 0.675 | 0.64 | 0.454 | 0.427
7 | NCI-H1355 | 0.412 | 0.36 | 0.395 | 0.263 | 0.118 | 0.794 | 0.721 | 0.922 | 0.293 | 0.133 | 0.69 | 0.753 | 0.813 | 0.18 | 0.156 | 0.867 | 0.87 | 0.802 | 0.739 | 0.75
8 | LU99A | 0.328 | 0.296 | 0.284 | 0.157 | 0.142 | 0.373 | 0.344 | 0.381 | 0.437 | 0.163 | 0.521 | 0.381 | 0.655 | 0.433 | 0.174 | 0.486 | 0.437 | 0.498 | 0.307 | 0.475
9 | LCLC-97TM1 | 0.171 | 0.102 | 0.161 | 0.105 | 0.0788 | 0.179 | – | 0.32 | 0.234 | 0.0966 | 0.738 | 0.732 | 0.862 | 0.718 | 0.148 | 0.166 | 0.224 | 0.182 | 0.163 | 0.179
10 | LC-2-ad | 0.46 | 0.356 | 0.247 | 0.0963 | 0.0784 | 0.828 | 0.787 | 0.878 | 0.271 | 0.182 | 0.52 | 0.332 | 0.6 | 0.149 | 0.187 | 0.829 | 0.828 | 0.906 | 0.688 | 0.434
11 | NCI-H1395 | 0.668 | 0.669 | 0.583 | 0.379 | 0.239 | 0.381 | 0.393 | 0.385 | 0.323 | 0.304 | 0.428 | 0.41 | 0.427 | 0.352 | 0.306 | 1.23 | 0.922 | 0.884 | 0.926 | 0.526
12 | HOP-62 | 0.558 | 0.458 | 0.919 | 0.429 | 0.0856 | 0.603 | 0.387 | 0.51 | 0.25 | 0.043 | 0.581 | 0.645 | 0.713 | 0.228 | 0.068 | 0.784 | 1.07 | 0.94 | 1.13 | 0.933
13 | NCI-H2347 | 0.63 | 0.342 | 0.777 | 0.417 | 0.333 | 0.888 | 0.695 | 0.73 | 0.553 | 0.276 | 0.685 | 0.353 | 0.332 | 0.321 | 0.219 | 0.915 | 0.91 | 0.787 | 0.91 | 0.909
14 | NCI-H2087 | 0.828 | 0.542 | 0.877 | 0.447 | 0.141 | 1.3 | 1.23 | 1.19 | 0.0709 | 0.0403 | 0.684 | 0.819 | 0.458 | 0.0422 | 0.037 | 0.949 | 0.773 | 0.748 | 0.429 | 0.264
15 | EPLC-272H | 0.286 | 0.286 | 0.31 | 0.0769 | 0.152 | 0.188 | 0.163 | 1.2 | 0.153 | 0.0636 | 0.342 | 0.192 | 0.277 | 0.0803 | 0.0618 | 1.13 | 1.22 | 1.15 | 1.03 | 1.2
16 | LXF-289 | 0.802 | 0.783 | 0.74 | 0.442 | 0.277 | 1.12 | 1.03 | 1.19 | 0.11 | 0.0936 | 0.374 | 0.151 | 0.227 | 0.0474 | 0.0368 | 0.903 | 0.969 | 0.961 | 0.93 | 0.994
